We go through nine molecules from US9573987B2 (priority 2011, dated 2017).

The target of experiment [1] is T1, IGF-1 receptor (Homo sapiens, UniProt P08069). Put plainly: IGF-1 receptor phosphorylation assay, receptor transfected HEK293 cells. Type of experiment: cell-based. More on the design: expressed in transfected cells; host or cells: HEK293. As to the method:
Color development was stopped 5 min later by adding 0.05 ml 1 N HCl. Absorbance at 450 nm was measured on Titertek Multiscan MCC340 (ThermoFisher, Pittsburgh, Pa.).

Another experiment has as its target insulin receptor (Homo sapiens, UniProt P06213). Put plainly: Insulin receptor binding assay (competition, scintillation proximity). Particulars: Table 9. More on the design: expressed in transfected cells; plasma membrane fragments. On the technique in general: Scintillation proximity formats need no separation of bound from free tracer.
The target of experiment [2] is T1, IGF-1 receptor. Put plainly: IGF-1 receptor binding assay (competition, scintillation proximity). More on the design: expressed in transfected cells; plasma membrane fragments. Particulars: Table 9.
Experiment [3] addresses T2, insulin subtype A receptor (IR-A) (Homo sapiens, UniProt P06213).
T2 construct: expressed in transfected cells; host or cells: HEK293
The experiment can be described thus: Insulin subtype A receptor phosphorylation, receptor transfected HEK293 cells. Format: cell-based. Particulars: for IC50: read-out: Phosphorylation at Insulin Receptor Subtype A (IC50), Table 16A. On the procedure:
(§1) Color development was stopped 5 min later by adding 0.05 ml 1 N HCl. Absorbance at 450 nm was measured on Titertek Multiscan MCC340 (ThermoFisher, Pittsburgh, Pa.). […]

Experiment [4] addresses insulin subtype B receptor (IR-B) (Homo sapiens, UniProt P06213). The experiment can be described thus: Insulin subtype B receptor phosphorylation, receptor transfected HEK293 cells. Type of experiment: cell-based. Also noted: expressed in transfected cells; host or cells: HEK293. Particulars: read-out: Phosphorylation at Insulin Receptor Subtype B (IC50); Table 16B. As to the method: as §1

T1 sequence (P08069 31-736 limits assumed): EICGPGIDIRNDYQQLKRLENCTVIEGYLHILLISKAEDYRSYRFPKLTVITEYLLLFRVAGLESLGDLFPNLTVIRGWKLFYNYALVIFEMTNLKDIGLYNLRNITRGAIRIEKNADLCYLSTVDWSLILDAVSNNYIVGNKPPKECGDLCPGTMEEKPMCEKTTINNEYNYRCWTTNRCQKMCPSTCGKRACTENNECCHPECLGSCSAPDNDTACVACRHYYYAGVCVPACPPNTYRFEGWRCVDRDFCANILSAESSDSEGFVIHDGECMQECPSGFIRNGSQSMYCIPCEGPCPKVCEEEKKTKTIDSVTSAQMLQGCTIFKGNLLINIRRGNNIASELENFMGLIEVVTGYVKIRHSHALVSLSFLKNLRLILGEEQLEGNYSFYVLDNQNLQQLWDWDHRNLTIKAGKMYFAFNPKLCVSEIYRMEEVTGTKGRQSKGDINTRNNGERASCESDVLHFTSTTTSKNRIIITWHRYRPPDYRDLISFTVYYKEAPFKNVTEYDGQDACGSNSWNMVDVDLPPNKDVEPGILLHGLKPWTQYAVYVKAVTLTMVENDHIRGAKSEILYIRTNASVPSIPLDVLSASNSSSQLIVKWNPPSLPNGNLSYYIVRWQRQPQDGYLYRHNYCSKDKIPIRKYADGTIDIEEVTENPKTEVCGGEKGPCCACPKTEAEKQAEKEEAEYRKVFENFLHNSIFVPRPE
T1 sequence (P08069 741-1367 partner limits assumed): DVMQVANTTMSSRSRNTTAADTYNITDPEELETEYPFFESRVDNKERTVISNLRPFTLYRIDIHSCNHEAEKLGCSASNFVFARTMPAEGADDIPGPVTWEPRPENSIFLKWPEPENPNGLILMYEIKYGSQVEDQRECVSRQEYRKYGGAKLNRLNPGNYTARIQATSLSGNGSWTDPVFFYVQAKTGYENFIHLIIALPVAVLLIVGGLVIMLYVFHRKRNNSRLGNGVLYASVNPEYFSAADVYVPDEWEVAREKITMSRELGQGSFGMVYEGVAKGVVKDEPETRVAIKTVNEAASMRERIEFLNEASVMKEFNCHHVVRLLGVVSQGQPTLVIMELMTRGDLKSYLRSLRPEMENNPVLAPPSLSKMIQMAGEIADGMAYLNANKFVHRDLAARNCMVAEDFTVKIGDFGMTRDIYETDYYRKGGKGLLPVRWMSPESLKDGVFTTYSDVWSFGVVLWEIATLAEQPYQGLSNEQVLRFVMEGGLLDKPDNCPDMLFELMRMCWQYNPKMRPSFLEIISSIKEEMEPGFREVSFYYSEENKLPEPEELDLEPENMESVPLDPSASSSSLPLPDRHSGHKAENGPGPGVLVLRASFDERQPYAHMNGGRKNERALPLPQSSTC

In turn, `CC[C@H](C)[C@H](NC(=O)CN)C(=O)N[C@H](C(=O)N[C@@H](CC(=O)O)C(=O)N[C@@H](CCC(=O)O)C(=O)N[C@H]1CSSC[C@@H]2NC(=O)[C@H](CO)NC(=O)[C@H](C)NC(=O)[C@H](Cc3c[nH]cn3)NC(=O)[C@H](CSSC[C@H](NC(=O)[C@H](CC(C)C)NC(=O)[C@H](Cc3c[nH]cn3)NC(=O)[C@H](CCC(=O)O)NC(=O)[C@@H]3CCCN3C(=O)CN)C(=O)NCC(=O)N[C@@H](C)C(=O)N[C@@H](CC(=O)O)C(=O)N[C@@H](CC(C)C)C(=O)N[C@@H](C(C)C)C(=O)N[C@@H](CC(=O)O)C(=O)N[C@@H](C)C(=O)N[C@@H](CC(C)C)C(=O)N[C@@H](Cc3ccc(O)cc3)C(=O)N[C@@H](CC(C)C)C(=O)N[C@@H](C(C)C)C(=O)N[C@H](C(=O)NCC(=O)N[C@@H](CC(=O)O)C(=O)N[C@@H](C)C(=O)NCC(=O)N[C@@H](Cc3ccccc3)C(=O)N[C@@H](Cc3ccc(O)cc3)C(N)=O)CSSC[C@@H](C(=O)N[C@@H](CC(N)=O)C(=O)O)NC(=O)[C@H](Cc3ccc(O)cc3)NC(=O)[C@H](CCSC)NC(=O)[C@H](CCC(=O)O)NC(=O)[C@H](CC(C)C)NC(=O)[C@H](CCCNC(=N)N)NC(=O)[C@H](CCCNC(=N)N)NC(=O)[C@H](CC(C)C)NC(=O)[C@H](CC(=O)O)NC2=O)NC1=O)C(C)C` registered an EC50 on IGF-1 receptor [1] of 11.3 nM. In addition, the “IGF-1 Receptor % IGF” value at IGF-1 receptor [1] (Table 10) amounted to 7.7%. Besides, on insulin receptor, the “Insulin Receptor % insulin (in test)” value came to 1171.4%. Further, the “IGF-1 Receptor % IGF-1 (in test)” value at IGF-1 receptor [2] is 2.3%. Take `CC[C@H](C)[C@H](NC(=O)CN)C(=O)N[C@H](C(=O)N[C@@H](CC(=O)O)C(=O)N[C@@H](CCC(=O)O)C(=O)N[C@H]1CSSC[C@@H]2NC(=O)[C@H](CO)NC(=O)[C@H](C)NC(=O)[C@H](Cc3c[nH]cn3)NC(=O)[C@H](CSSC[C@H](NC(=O)[C@H](CC(C)C)NC(=O)[C@H](Cc3c[nH]cn3)NC(=O)[C@H](CCC(=O)O)NC(=O)[C@@H]3CCCN3C(=O)CN)C(=O)NCC(=O)N[C@@H](C)C(=O)N[C@@H](CC(=O)O)C(=O)N[C@@H](CC(C)C)C(=O)N[C@@H](C(C)C)C(=O)N[C@@H](CC(=O)O)C(=O)N[C@@H](C)C(=O)N[C@@H](CC(C)C)C(=O)N[C@@H](Cc3ccc(O)cc3)C(=O)N[C@@H](CC(C)C)C(=O)N[C@@H](C(C)C)C(=O)N[C@H](C(=O)NCC(=O)N[C@@H](CC(=O)O)C(=O)N[C@@H](C)C(=O)NCC(=O)N[C@@H](Cc3ccccc3)C(=O)N[C@@H](Cc3ccc(O)cc3)C(N)=O)CSSC[C@@H](C(=O)N[C@@H](CC(N)=O)C(=O)O)NC(=O)[C@H](Cc3ccc(O)cc3)NC(=O)[C@H](CC[S+](C)[O-])NC(=O)[C@H](CCC(=O)O)NC(=O)[C@H](CC(C)C)NC(=O)[C@H](CCCNC(=N)N)NC(=O)[C@H](CCCNC(=N)N)NC(=O)[C@H](CC(C)C)NC(=O)[C@H](CC(=O)O)NC2=O)NC1=O)C(C)C` (stereo partly shown): the “Insulin Receptor % insulin (in test)” value at insulin receptor came out at 400.7%. With `CC[C@H](C)[C@H](NC(=O)CN)C(=O)N[C@H](C(=O)N[C@@H](CC(=O)O)C(=O)N[C@@H](CCC(=O)O)C(=O)N[C@H]1CSSC[C@@H]2NC(=O)[C@H](CO)NC(=O)[C@H](CCCNC(=N)N)NC(=O)[C@H](Cc3ccccc3)NC(=O)[C@H](CSSC[C@H](NC(=O)[C@H](CC(C)C)NC(=O)[C@@H](NC(=O)[C@H](CCC(=O)O)NC(=O)[C@@H]3CCCN3C(=O)CN)[C@@H](C)O)C(=O)NCC(=O)N[C@@H](C)C(=O)N[C@@H](CCC(=O)O)C(=O)N[C@@H](CC(C)C)C(=O)N[C@@H](C(C)C)C(=O)N[C@@H](CC(=O)O)C(=O)N[C@@H](C)C(=O)N[C@@H](CC(C)C)C(=O)N[C@@H](Cc3ccc(O)cc3)C(=O)N[C@@H](CC(C)C)C(=O)N[C@@H](C(C)C)C(=O)N[C@H](C(=O)NCC(=O)N[C@@H](CC(=O)O)C(=O)N[C@@H](CCCNC(=N)N)C(=O)NCC(=O)N[C@@H](Cc3ccccc3)C(=O)N[C@@H](Cc3ccc(O)cc3)C(N)=O)CSSC[C@@H](C(=O)N[C@@H](C)C(N)=O)NC(=O)[C@H](Cc3ccc(O)cc3)NC(=O)[C@H](CCSC)NC(=O)[C@H](CCC(=O)O)NC(=O)[C@H](CC(C)C)NC(=O)[C@H](CCCNC(=N)N)NC(=O)[C@H](CCCNC(=N)N)NC(=O)[C@H](CC(C)C)NC(=O)[C@H](CC(=O)O)NC2=O)NC1=O)C(C)C` [IGF-1 A:B (E10Y16L17) DPI], the “IGF-1 Receptor % IGF-1 (in test)” value on IGF-1 receptor [2] was 3.3%. For `CC[C@H](C)[C@H](NC(=O)CN)C(=O)N[C@H](C(=O)N[C@@H](CC(=O)O)C(=O)N[C@@H](CCC(=O)O)C(=O)N[C@H]1CSSC[C@@H]2NC(=O)[C@H](CO)NC(=O)[C@H](CCCNC(=N)N)NC(=O)[C@H](Cc3ccccc3)NC(=O)[C@H](CSSC[C@H](NC(=O)[C@H](CC(C)C)NC(=O)[C@H](Cc3c[nH]cn3)NC(=O)[C@H](CCC(=O)O)NC(=O)[C@@H]3CCCN3C(=O)CN)C(=O)NCC(=O)N[C@@H](C)C(=O)N[C@@H](CC(=O)O)C(=O)N[C@@H](CC(C)C)C(=O)N[C@@H](C(C)C)C(=O)N[C@@H](CC(=O)O)C(=O)N[C@@H](C)C(=O)N[C@@H](CC(C)C)C(=O)N[C@@H](Cc3ccc(O)cc3)C(=O)N[C@@H](CC(C)C)C(=O)N[C@@H](C(C)C)C(=O)N[C@H](C(=O)NCC(=O)N[C@@H](CC(=O)O)C(=O)N[C@@H](CCCNC(=N)N)C(=O)NCC(=O)N[C@@H](Cc3ccccc3)C(=O)N[C@@H](Cc3ccc(O)cc3)C(N)=O)CSSC[C@@H](C(=O)N[C@@H](C)C(N)=O)NC(=O)[C@H](Cc3ccc(O)cc3)NC(=O)[C@H](CC[S+](C)[O-])NC(=O)[C@H](CCC(=O)O)NC(=O)[C@H](CC(C)C)NC(=O)[C@H](CCCNC(=N)N)NC(=O)[C@H](CCCNC(=N)N)NC(=O)[C@H](CC(C)C)NC(=O)[C@H](CC(=O)O)NC2=O)NC1=O)C(C)C` (stereo partly shown) [IGF-1 A:B (H5D10Y16L17) (S═O)DPI], the “Insulin Receptor % insulin (in test)” value on insulin receptor was found to be 316.0%. With `CC[C@H](C)[C@H](NC(=O)CN)C(=O)N[C@H](C(=O)N[C@@H](CC(=O)O)C(=O)N[C@@H](CCC(=O)O)C(=O)N[C@H]1CSSC[C@@H]2NC(=O)[C@H](CO)NC(=O)[C@H](CCCNC(=N)N)NC(=O)[C@H](Cc3ccccc3)NC(=O)[C@H](CSSC[C@H](NC(=O)[C@H](CC(C)C)NC(=O)[C@@H](NC(=O)[C@H](CCC(=O)O)NC(=O)[C@@H]3CCCN3C(=O)CN)[C@@H](C)O)C(=O)NCC(=O)N[C@@H](C)C(=O)N[C@@H](CCC(=O)O)C(=O)N[C@@H](CC(C)C)C(=O)N[C@@H](C(C)C)C(=O)N[C@@H](CC(=O)O)C(=O)N[C@@H](C)C(=O)N[C@@H](CC(C)C)C(=O)N[C@@H](CCC(N)=O)C(=O)N[C@@H](Cc3ccccc3)C(=O)N[C@@H](C(C)C)C(=O)N[C@H](C(=O)NCC(=O)N[C@@H](CC(=O)O)C(=O)N[C@@H](CCCNC(=N)N)C(=O)NCC(=O)N[C@@H](Cc3ccccc3)C(=O)N[C@@H](Cc3ccc(O)cc3)C(=O)N[C@@H](Cc3ccccc3)C(=O)N[C@@H](CC(N)=O)C(=O)N[C@@H](CCCCN)C(=O)N3CCC[C@H]3C(=O)N[C@H](C(N)=O)[C@@H](C)O)CSSC[C@@H](C(=O)N[C@@H](C)C(N)=O)NC(=O)[C@H](Cc3ccc(O)cc3)NC(=O)[C@H](CCSC)NC(=O)[C@H](CCC(=O)O)NC(=O)[C@H](CC(C)C)NC(=O)[C@H](CCCNC(=N)N)NC(=O)[C@H](CCCNC(=N)N)NC(=O)[C@H](CC(C)C)NC(=O)[C@H](CC(=O)O)NC2=O)NC1=O)C(C)C` [IGF-1 A:B], at insulin receptor, the “Insulin Receptor % insulin (in test)” value is 5.8% and the “Insulin Receptor % native insulin activity (0.6 nM)” value came out at 5.8%. Consider “DP20 random: CTP linker sequence randomized; linking peptide PPRPPQSASPPDLSPLSGTPSRPSLS; SEQ ID NO: 69 (listed as Homo sapiens)”, for which the results for the IC50 in experiment [3] and in experiment [4] were 8.08 nM and 2.46 nM, respectively.

B1: DP20 P to A: CTP linking peptide wherein the prolines have been replaced with alanine (SEQ ID NO: 70) (protein, listed as Homo sapiens)
chain: GEEEEEKGPEHLCGAHLVDALYLVCGDRGFYSSSSRAAAASLASASRLAGASDTAILAQKGIVDECCHRSCDLRRLENYCN
Take B1: the “in vitro phosphorylation activity at the insulin subtype A receptor (result in words)” value in experiment [3] (FIGS. 21, 23) was “appreciable activity at the insulin receptor, equivalent to that of native IGF-1”.

B2: DP20, S2A: CTP linking peptide wherein the serines have been replaced with alanine (SEQ ID NO: 80) (protein, listed as Homo sapiens)
chain: GEEEEEKGPEHLCGAHLVDALYLVCGDRGFYAAAARAPPPALPAPARLPGPADTPILPQKGIVDECCHRSCDLRRLENYCN
On to B2, for which the half-maximal inhibitory concentration (IC50) was determined as 11.8 nM in experiment [3] and 7.44 nM in experiment [4].

B3: DP-20, C^0: DP20 structure with the native proinsulin C peptide as the linking peptide (protein)
chain: GEEEEEKGPEHLCGAHLVDALYLVCGDRGFYRREAEDLQVGQVELGGGPGAGSLQPLALEGSLQRKGIVDECCHRSCDLRRLENYCN
As for B3, the concentration for half-maximal inhibition (IC50) in experiment [3] is 84.3 nM; in experiment [4] it was 35.4 nM.

The term EC50 denotes the concentration that produces a half-maximal response. A low value points to a more potent agent. As usually defined, the IC50 is the point on the concentration scale where inhibition reaches its midpoint.
